Experimental findings from PMC11793105, “A kalihinol analog disrupts apicoplast function and vesicular trafficking in P. falciparum malaria” (Science (New York, N.Y.), 2024) are described below.

The assay concerns S. cerevisiae strains with overexpressed or repressed Sec13p. Format: cell-based, Saccharomyces cerevisiae. The conditions noted are these: Tet-off promoter, doxycycline, vs WT yeast. The source says: Fig. 4. […] (C) Schematic representation of the CRISPR-Cas9–based replacement strategy used to introduce a deletion of the targeted repeat regions in the PfSec13 gene. The insertion was achieved through overlap extension polymerase chain reaction (PCR) of fragments directly upstream and downstream of the target segment and subsequently formed by primer overlap extension PCR to replicate the desired deletion. […] (D) Predicted structure of the SEC13 protein highlighting the seven amino acid tandem repeat regions targeted for deletion (red). […] Data were analyzed using a Sigmoidal, 4PL (X represents concentration, n = 3, nonlinear regression, CI: 95%).
PCR amplification and introduced into an episomal E. coli/yeast shuttle vector, pRS425, by using an in-fusion cloning kit (Takara Bio USA, Inc) and the resulting pRS425-SEC13 plasmid was transformed into the BY4741 yeast strain. To swiftly repress the SEC13 gene, we utilized the tet-off system. This involved substituting the native SEC13 gene promoter with a tetracycline (tet)- regulatable counterpart, while leaving the original SEC13 open reading frame intact. The yeast

Consider `[C-]#[N+][C@]1(C)CC[C@H]2[C@@H]([C@@H](C(C)C)CC[C@]2(C)[N+]#[C-])[C@H]1O` [MED6-189], for which the “increase in susceptibility on Sec13p repression” value is on record as ~ 5.5 fold.
